Patent US20020182232A9, “Cosmetic composition comprising at least one ingredient chosen from compounds of formula (I) and salts thereof, use thereof as colouring agent, and novel compounds of formulae (IIa), (IIIa), (IVa), (Va), and (VIa), and salts thereof” (priority 2000, published 2002)

Legend:
[1] = Bleeding: ability to dissolve in a dispersion medium (optical density of supernatant); format: physicochemical; details: supernatant absorbance 400 to 800 nm, bleeds when O.D. >1.5; for Bleeding in water, O.D.: 1% by weight compound in water + 1% Polysorbate 20; for Bleeding in oil (triglycerides), O.D.: 1% by weight compound in caprylic/capric acid triglycerides
Description: 3/Bleeding: Ability to Dissolve in a Dispersion Medium
A dispersion was prepared comprising 1% by weight of test compound in an oil (caprylic/capric acid triglycerides).
A dispersion was also prepared comprising 1% by weight of test compound in a mixture of water and 1% by weight of wetting agent (Polysorbate 20).
The mixture was stirred for 10 minutes using a magnetic bar. 10 g of dispersion were weighed out and placed in centrifuge tubes. This material was centrifuged for 30 minutes at 3000 rpm.
The supernatant liquid was taken up and the optical density was determined by measuring the absorbence on a spectrophotometer from 400 to 800 nm, at a speed of 240 nm/min.
The compound was considered to bleed when the optical density was greater than 1.5.

[2] = Photochemical stability (SUNTEST CPS, colour difference before/after); format: physicochemical; details: compacted pure compound, SUNTEST CPS one hour, 765 watts/m^2; UV-unstable when ΔE >6
Description: 4/Photochemical Stability
The UV stability was carried out by leaving the compacted pure test compound (100 bar, FAP crucible) in the SUNTEST CPS for one hour. The SUNTEST CPS is an apparatus sold by Heraeus. […] The apparatus was used at 765 watts/m^2 and emits UVA, UVB, and visible light over a range of 300 to 800 nm.
The difference in colour ΔE before and after the SUNTEST was measured by colorimetry.
The compound was considered as UV-unstable when the ΔE was >6.

Structure (SMILES)	Bleeding in water, O.D. [1]	Photochemical stability ΔE [2]	Bleeding in oil (triglycerides), O.D. [1]	melting point [°C]
O=C1c2ccccc2C(=O)c2c1oc1c2ccc2ccc(O)cc21 [2-Hydroxy-dinaphtho(1,2-b:2′,3′-d)furan-7,12-dione]	O.D. = 0.23	ΔE = 1.32		
COc1ccc2ccc3oc4c(c3c2c1)C(=O)c1ccccc1C4=O [2-methoxydinaphtho-(2,1-b:2′,3′-d)furan-8,13-dione]	O.D. = 0.30	ΔE = 0.28		
O=C1c2ccccc2C(=O)c2c1oc1ccc3cc(Br)ccc3c21 [3-bromodinaphtho(2,1-b:-2′,3′-d)furan-8,13-dione]	O.D. = 0.03	ΔE = 2.61	O.D. = 0.92	
COc1ccc2c(ccc3oc4c(c32)C(=O)c2ccccc2C4=O)c1 [3-methoxydinaphtho-(2,1-b:2′,3′-d)furan-8,13-dione]	O.D. = 0.04	ΔE = 0.81	O.D. = 0.88	292.1
O=C1c2ccccc2C(=O)c2c1oc1c2cc(Cl)c2ccccc21 [5-chlorodinaphtho-(1,2-b:2′,3′-d)furan-7,12-dione]	O.D. = 0.02	ΔE = 1.36		
CCOc1cc2c3c(oc2c2ccccc12)C(=O)c1ccccc1C3=O [5-ethoxydinaphtho(1,2-b:2′,3′-d)furan-7,12-dione]	O.D. = 0.27	ΔE = 0.24		
CCCCCCOc1cc2c3c(oc2c2ccccc12)C(=O)c1ccccc1C3=O [5-hexyloxydinaphtho-(1,2-b:2′,3′-d)furan-7,12-dione]	O.D. = 0.29	ΔE = 0.91		173.9
O=C1c2ccccc2C(=O)c2c1oc1cc(O)c3ccccc3c21 [5-hydroxydinaphtho(2,1-b:2′,3′-d)furan-8,13-dione]	O.D. = 0.16	ΔE = 0.10		
CC(C)Oc1cc2c3c(oc2c2ccccc12)C(=O)c1ccccc1C3=O [5-isopropyloxydinaphtho-(1,2-b:2′,3′-d)furan-7,12-dione]	O.D. = 0.03	ΔE = 0.81		
O=C1c2ccccc2C(=O)c2c1oc1c2ccc2ccccc21 [Dinaphtho(1,2-b:2′,3′-d)furan-7,12-dione, dinaphtho(1,2-b:2′,3′-d)furan-7,12-dione]	O.D. = 0.13	ΔE = 3.91		
O=C1c2ccccc2C(=O)c2c1oc1ccc3ccccc3c21 [Dinaphtho(2,1-b:2′,3′-d)furan-8,13-dione, dinaphtho(2,1-b:2′,3′-d)furan-8,13-dione]	O.D. = 0.01	ΔE = 0.23		
O=C(O)c1nn(-c2ccc(S(=O)(=O)O)cc2)c(O)c1N=Nc1ccc(S(=O)(=O)O)cc1 [FD&C Yellow No. 5, reference compound]	O.D. = 0.08	ΔE = 6.63		
O=S(=O)([O-])c1ccc(N=Nc2c(O)ccc3cc(S(=O)(=O)[O-])ccc23)cc1.[Na+].[Na+] [FD&C Yellow No. 6, reference compound]	O.D. = 0.58	ΔE = 10.06		
